How the values were obtained:
[1] = target: T1, Sterol O-acyltransferase 1 (Homo sapiens, UniProt P35610); assay: ACAT-1 Enzyme Inhibition Assay; conditions: pH 7.4; 37 °C
T1 sequence (P35610 whole entry): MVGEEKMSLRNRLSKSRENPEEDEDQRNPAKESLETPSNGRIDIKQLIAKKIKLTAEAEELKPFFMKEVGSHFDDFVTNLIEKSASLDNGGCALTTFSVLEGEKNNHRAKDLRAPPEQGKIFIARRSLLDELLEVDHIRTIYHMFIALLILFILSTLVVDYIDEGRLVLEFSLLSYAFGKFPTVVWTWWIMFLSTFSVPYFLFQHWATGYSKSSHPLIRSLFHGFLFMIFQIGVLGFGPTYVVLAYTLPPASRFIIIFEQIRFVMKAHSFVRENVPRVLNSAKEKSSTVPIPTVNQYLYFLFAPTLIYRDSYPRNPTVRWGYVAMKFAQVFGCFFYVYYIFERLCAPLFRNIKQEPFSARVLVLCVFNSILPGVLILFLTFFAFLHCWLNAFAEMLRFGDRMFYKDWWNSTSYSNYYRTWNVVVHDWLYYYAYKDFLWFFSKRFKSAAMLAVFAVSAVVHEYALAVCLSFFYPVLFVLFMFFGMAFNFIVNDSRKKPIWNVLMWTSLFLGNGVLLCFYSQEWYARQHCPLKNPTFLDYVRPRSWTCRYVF
Experimental: (§1) The reaction was started by adding substrate [14C]oleoyl coenzyme A and incubated. After the reaction was stopped, radioactive cholesteryl oleate product was separated into the organic heptane phase. ACAT-1 activity was quantified by counting aliquots of the upper heptane layer by liquid scintillography.

[2] = target: T2, Diacylglycerol O-acyltransferase 1 (Homo sapiens, UniProt O75907); assay: DGAT Enzyme Inhibition Assay; conditions: pH 7.4; 22 °C
T2 sequence (O75907 whole entry): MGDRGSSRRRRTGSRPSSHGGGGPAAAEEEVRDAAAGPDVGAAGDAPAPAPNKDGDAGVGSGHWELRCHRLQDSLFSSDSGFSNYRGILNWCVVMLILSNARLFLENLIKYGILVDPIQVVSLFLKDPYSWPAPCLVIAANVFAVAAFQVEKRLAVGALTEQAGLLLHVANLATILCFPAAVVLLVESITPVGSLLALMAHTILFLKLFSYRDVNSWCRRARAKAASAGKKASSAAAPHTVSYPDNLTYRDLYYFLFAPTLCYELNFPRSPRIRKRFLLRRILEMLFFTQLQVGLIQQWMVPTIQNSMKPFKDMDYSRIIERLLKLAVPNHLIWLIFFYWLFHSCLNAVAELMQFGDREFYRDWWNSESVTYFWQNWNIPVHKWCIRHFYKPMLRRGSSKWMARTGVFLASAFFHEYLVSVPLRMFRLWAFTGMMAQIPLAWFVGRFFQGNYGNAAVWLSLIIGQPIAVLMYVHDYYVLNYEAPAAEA
Experimental: as §1, with “The assay mixture contains test compound, membrane protein, and 1,2 dioleoyl-sn-glycerol in a 96-deep well plate. The” for “The”, “triolein” for “cholesteryl oleate”, “DGAT” for “ACAT-1”

Compound: CC1(C)Oc2ncnc(N)c2N=C1c1ccc(C23CCCC(CC(=O)O)(CC2)CC3)cc1 [2-[5-(4-{4-amino-7,7-dimethyl-7H-pyrimido[4,5-b][1,4]oxazin-6-yl}phenyl)bicyclo[3.2.2]nonan-1-yl]acetic acid]
- IC50 [1]: 28 µM
- IC50 [2]: 0.069 µM

— BindingDB's records for doi:10.1021/jm801507v (AstraZeneca, 2009)
